Data taken from US5622944A, “Testosterone prodrugs for improved drug delivery” (Affymax Technologies N.V., priority 1995, dated 1997).
Where a name gives a salt, the structure may show the parent alone. Read-outs that look alike come from different tables or passages of the source.

Tests used:
[1] = Water solubility (H2O sol)
[2] = format: in vitro ADME, mouse; conditions: for Enhancement in in vitro electrotransport skin flux compared to testosterone: hairless mouse skin, vs unmodified testosterone, 'nearly 10-fold enhancement or greater'; for Flux, active electrotransport (ET): active cells (ETm), 100 uA/cm^2, 6 h
Protocol: In vitro electrotransport of testosterone/chemical modifier complexes across hairless mouse skin was evaluated as described in Example 28. The experiments were conducted using modified Valia-Chien cells having 1.0 ml donor and 2.5 ml receptor cells. Anodic transport was carried out using a silver wire-based salt bridge in the donor compartment and a silver chloride cathode in the receptor. Cathodic transport was effected by reversing the electrode configuration. The cells were connected in series and a constant current and temperature were supplied to each cell.
After a predetermined period of time (6 h), aliquots were removed from the receiver phase for immediate analysis by HPLC to determine cumulative flux.
The electrotransport of testosterone/chemical modifier complexes was achieved using modified Valia-Chien cells (1.0 ml donor and 2.5 ml receptor cells). Full thickness, hairless mouse skin (Charles River Labs, Wilmington, Mass.) was soaked for one hour in phosphate buffered saline (PBS, pH=7.4) before placing between each compartment (dermal side of skin facing toward receptor). One passive (P1:data) and two or more (ETm :data) active cells were used to screen each compound.
A 10 mM (1 ml) aqueous solution of testosterone drug/prodrug was placed in the donor (unstirred) compartment and the receptor (stirred) was filled with 2.5 ml of PBS. In order to check for egress due to e.g. damaged skin, a zero hour sample of receptor ([…]) was taken one half hour after the drug solution was placed in the donor compartment. Replacement fluid of equal sample volume was added to the receptor compartment immediately after samples were taken.
Anodic electrotransport was achieved using a silver wire (immersed in a polyvinylalcohol-based salt bridge to minimize junction potential) in the donor compartment and a AgCl cathode in the receptor. […] The electrotransport cells were connected in series and constant current (100 uA/cm^2, […] for a skin area of 0.64 cm^2) and temperature (32° C.) were supplied to each cell. After six hours of active/passive transport, aliquots (200 ul) of the receptor were sampled and immediately analyzed by HPLC.
A standard plot of peak area and concentration for each compound was constructed using HPLC. The peak areas of the samples were determined and the concentrations calculated using the standard data. Cumulative flux was calculated using Quickbasic and reported in nmol/cm^2 /hr.

[3] = Degradation (%/d)
[4] = in vitro; format: cell-based, human; conditions: human, dermal fibroblasts, MTT
Protocol: (§1) As discussed above, the chemical modifier, when present in the subject in its free or released form, and in appropriately administered amounts, should preferably be non-toxic. Additionally, any further in vivo degradation products of the chemical modifier should be non-toxic, as well. Table 2 provides in vitro relative cytotoxicity data for a number of testosterone/chemical modifier complexes, prepared in accordance with the invention. The cytotoxicity assessment was carried out by examining the viability of human dermal fibroblasts in the presence of a number of testosterone/chemical modifier complexes in accordance with the present invention. Details of the experimental protocol are summarized in Example 27.
(§2) The viability of human dermal fibroblasts in the presence of the 17-hydroxy sterol/chemical modifier compounds was assayed using MTT (3-[4,5-dimethylthiazol-2-yl]-2,5-diphenyltetrazolium bromide) reduction to formazan by mitochondrial enzymes as an indicator of cytotoxicity (Swisher, et al.). Confluent fibroblast cells were incubated for 2 or 16 hours in the presence of increasing concentrations of drug complex. At the end of the incubation period, medium was replaced for 4 hours by medium containing the tetrazolium salt, MTT. Metabolism of MTT to a blue formazan was quantitated by spectrophotometry at 540 nm.

[5] = in vitro; format: in vitro ADME; conditions: human, serum, 37° C., HPLC
Protocol: The hydrolytic activity of the sterol prodrug may be evaluated by studies of the chemical or enzymatic conversion of the prodrug to the unmodified parent compound, as described in Example 26.
Generally, the sterol/chemical modifier complex is dissolved in a minimum amount of a suitable solvent, such as ethanol, and the resulting solution is added to a sample of human serum. Following incubation, aliquots are then removed at various time points and analyzed to determine the extent of hydrolysis. Table I herein lists the representative serum half-lives of a number of testosterone prodrugs according to the present invention.
The rates of conversion are readily determined, for example by spectrophotometric methods or by gas-liquid or high performance liquid chromatography. Half-lives and other kinetic parameters may then be calculated using standard techniques.
Determination of Testosterone Prodrug Hydrolysis in Serum
Stock solutions (6 mM) of the testosterone prodrugs were prepared in ethanol (dissolution was accomplished by vortexing, sonication, or warming at 37° C., as needed). If required for dissolution, one drop of a co-solvent such as dimethylsulfoxide, dimethylformamide or methanol was added. (Acetonitrile is undesirable because it deactivates the serum enzymes).
HPLC separation methods were established for each study by dilution of the above stock solutions (6 μl) in acetonitrile (1 ml) to form 36 μM solutions. Samples (10 μl) were injected onto a Nucleosil 5C8 column (250×4 mm ID) fitted with an additional guard column (11×4 mm ID) and eluted with a mobile phase of approximately 65% HPLC grade water and 35% trifluoroacetic acid in acetonitrile (0.1% TFA in acetonitrile). Exact proportions of the mobile phase eluents were adjusted in each case to give optimum separation and run times.
Freshly defrosted human serum (3 ml, Sigma) was warmed at 37° C. for five minutes and then the testosterone prodrug stock solution (60 μl) was added with vortexing. […] The aliquots were added to 800 μl of 2% zinc sulfate solution in a 1.5 ml disposable microcentrifuge tube, vortexed immediately and centrifuged at 14,000 RPM for 3 minutes. The supernatants (10 μl) were injected onto the HPLC and peak areas used to determine the percent of parent drug formed or percent of prodrug remaining. Serum blanks were prepared similarly by addition of serum to the zinc sulfate solution, followed by centrifugation. Initial (time=0) samples were prepared by adding serum to the zinc sulfate solution, followed by addition of the complex and separation by centrifugation. The time=0 samples, as well as the original stock solutions, were also used to assess the stability of the complex in the absence of enzyme. Half-lives were determined using the following equation : […]
and plotting time (x ordinate) versus the natural logarithm of percent remaining prodrug (y ordinate) to obtain the slope (m) and the y intercept (b).

[6] = Steady state flux across human skin (iontophoretic); format: in vitro ADME; conditions: iontophoresis (Table 4)
Protocol: Another useful factor for in vitro assessment of skin permeability of a target drug or drug complex is steady state flux. Typically, when performing a kinetic analysis of the skin-penetrating ability of a target compound through a membrane, such as skin, such an analysis includes an assessment of the lag time and the steady state flux or permeation rate. The ideal membrane for such determinations is human skin.
Steady state flux across human skin was determined for three distinct testosterone/chemical modifier complexes, as shown in FIG. 5 and in Table 4. In FIG. 5, iontophoretic flux rates over time are plotted for testosterone-17β-stachydrine ester, chloride salt [2.9], (closed circles), testosterone-17β-(L-carnitine ethyl ester) carbonate, iodide salt [1.7] (solid squares), and testosterone-17β-choline carbonate, bromide salt [1.4] (open circles). […] Steady state flux values in FIG. 5 are expressed as testosterone equivalents in units of μg/cm^2 h.
Iontophoretically-induced steady state flux across human skin was determined for three distinct testosterone/chemical modifier complexes, testosterone-17β-stachydrine ester, chloride salt [2.9], testosterone-17β-(L-carnitine ethyl ester) carbonate, iodide salt [1.7], and testosterone-17β-choline carbonate, bromide salt [1.4]. The in vitro skin flux experiments were carried out in a similar fashion to those described above, with the exception that human skin was used as the membrane.
Steady state flux values provide an indication of the total amount of drug (or drug complex) that can penetrate the skin, under a given set of experimental conditions.

[7] = system: human dermal fibroblasts; assay: in vitro; format: cell-based; conditions: MTT
Protocol: as §1, §2

[8] = murine skin, 10 mM donor, 32° C.

Structure (SMILES) | solubility ([1]; H2O sol) | Enhancement in in vitro electrotransport skin flux compared to testosterone [2] | Flux, active electrotransport (ET) [2, 8] | Flux, passive (P) ([2]; murine skin, passive cells (P), 10 mM donor, 6 h, 32° C.) | Degradation [3] | CC50 at 2 h ([4]; IC50 2 h (cytotoxicity), 2 h incubation) | CC50 at 16 h ([4]; IC50 16 h (cytotoxicity), 16 h incubation) | half-life [5] | Steady State Flux [6] | H2O sol [1] | CC50 ([7]; read-out: IC50 2 h (cytotoxicity), 2 h incubation, 120 min) | CC50 ([7]; read-out: IC50 16 h (cytotoxicity), 16 h incubation, 960 min)
C[C@]12CC[C@H]3[C@@H](CCC4=CC(=O)CC[C@@]43C)[C@@H]1CC[C@@H]2OC(=O)OCC[N+](C)(C)C [Code 1.4, testosterone-17β-choline carbonate, bromide salt] | 4 mg/mL | ≥ 10 fold | 20.8 ± 21.0 nmol/cm^2 /hr | 4.0 ± 0.8 nmol/cm^2 /hr | 0 %/d | 966 µM | 929 µM | 0.4 h | 68 ± 4 nmole/cm^2 /h | – | – | –
CCOC(=O)C[C@H](C[N+](C)(C)C)OC(=O)O[C@H]1CC[C@H]2[C@@H]3CCC4=CC(=O)CC[C@]4(C)[C@H]3CC[C@]12C [Code 4.1, testosterone-17β-(L-carnitine ethyl ester) carbonate, bromide salt] | – | ≥ 10 fold | 15.7 ± 5.3 nmol/cm^2 /hr | – | 1 %/d | – | – | 4 h | – | 21.0 mg/mL | 1400 µM | 560 µM
